Experimental data reported in patent US20190060298A1, “NEW DRUG FOR THE TREATMENT AND/OR PREVENTION OF DEPRESSIVE DISORDERS” (SORBONNE UNIVERSITE, priority 2013, published 2019).

Columns and labels:
aconitase = assay: Aconitase activity in hippocampus; format: in vivo, Sprague-Dawley rats; settings: V rats; 288 μmol/kg/day, 15 days from D11; D31
Method: Rats were killed by decapitation and their right hippocampi were rapidly removed and homogenized in ice-cold buffer (5 mM Tris-HCl pH 7.5, 210 mM mannitol, 70 mM sucrose, 1 mM EDTA and 2.3 mM sodium citrate). Homogenates were rapidly centrifuged (14,000×g, 10 min, 4° C.) and the pellets were immediately frozen in liquid nitrogen and stored at −80° C. Aconitase activity was measured spectrophotometrically (Gardner et al., 1994), by monitoring the linear absorbance change at 340 nm, at 25° C., in a 1.0-ml reaction mixture containing 50 mM Tris HCl (pH 7.5), 0.05% BSA, 2 mM sodium citrate, 2 mM MnCl2, 0.4 mM NADP+, 0.85 units of isocitrate dehydrogenase, and 10-20 μg of protein extract. The absorbance change associated with aconitase activity was linear with respect to time and protein concentration. One milliunit of aconitase activity was defined as the amount of enzyme catalyzing the formation of 1 nmol of D-isocitrate per min and per mg.
(§1) Tempol (4-hydroxy-2,2,6,6-tetramethylpiperidine 1-oxyl), which was administered at a dose of 288 μmol/kg/day [Sigma-Aldrich, St Louis, Mo., USA]), was dissolved in distilled water and delivered via ALZET osmotic mini-pumps (2002, Charles River Laboratories, France). […]

CA3 neurons = assay: Golgi staining, hippocampal CA3 neuron morphology; format: in vivo, Sprague-Dawley rats; settings: 288 μmol/kg/day, 15 days
Method: At D11 and D31, unperfused brains were rapidly removed and processed with the FD Rapid Golgistain kit (FD NeuroTechnologies), as previously described by Blugeot et al. (2011). Histological quantification: for each rat, the total dendrite length of apical CA3 dendritric branches was measured for selected neurons with AxioVision 4.7 software and a Zeiss Imager M1 microscope. 3-5 hippocampal neurons per rat are selected for measurement by an investigator blind to the origin of the experimental animal. Dendritic tracing was quantified by Sholl analysis (Sholl, 1953). The number of intersections between the dendrites and the concentric circles was counted and plotted as a function of the distance from the soma. The density of dendritic spines was estimated by counting the number of apical dendritic spines in 3-4 segments of 15 μm located in the stratum radiatum, at 1000× resolution. Spine density was expressed as the number of spines per 15 μm length of apical dendrite.
Tempol (4-hydroxy-2,2,6,6-tetramethylpiperidine 1-oxyl), which was administered at a dose of 288 μmol/kg/day [Sigma-Aldrich, St Louis, Mo., USA]), was dissolved in distilled water and delivered via ALZET osmotic mini-pumps (2002, Charles River Laboratories, France). Tempol- or distilled water-filled pumps were implanted subcutaneously on the back of intruder rats under light anesthesia with isofluorane, 11 days after completion of the social-defeat procedure (D11), and were left in place for 15 days.

CA3 pyramidal cells = assay: CA3 dendritic architecture in Nrf2-null mice; format: in vivo; settings: Tempol 288 μmol/kg/day, osmotic mini-pump, 4 weeks
Method: (§2) Nrf2-null mice were backcrossed onto the C57BL/6 J background for seven generations using alternating male and female stock mice from the CNRS TAAM UPS44 (Orléans). The resulting wild-type (Nrf2+/+) and Nrf2−/− mice were genotyped and only male mice at 6 weeks old at the beginning of the experiments were used. The level of oxidative stress in mice was first evaluated through the measure of lipid peroxidation. Lipid peroxidation was assessed by measuring TBARS formation with a commercial assay kit (Cayman Chemical, Ann Arbor, Mich., USA), in accordance with the manufacturer's instructions. TBARS concentration was calculated from an MDA standard curve and normalized.
(§3) To examine the depression-like phenotype of Nrf2-null mice, the helplessness behaviour, anhedonia and HPA hyperactivity (corticosterone, and adrenal gland weight) were assessed before and after a chronic mild stress (CMS) protocol. The neuroanatomical morphology of hippocampus in mice was estimated using Golgi Staining procedure. Tempol (4-hydroxy-2,2,6,6-tetramethylpiperidine 1-oxyl, Sigma-Aldrich, St Louis, Mo., USA), which was administered at a dose of 288 μmol/kg/day (Wilcox, 2010), was dissolved in distilled water and delivered via ALZET osmotic mini-pumps (1004, Charles River Laboratories, France). […]

Nrf2-null mice = assay: Depression-like phenotype of Nrf2-null mice after CMS; format: in vivo; settings: Nrf2-null mice after three weeks of CMS; Tempol 288 μmol/kg/day from one week before CMS to end
Method: as §2, §3

Sprague-Dawley rats [1] = assay: Forced swimming test after sensitization paradigm; format: in vivo; settings: V animals; TEMPOL 288 μmol/kg/day 15 days from D11; after three weeks of CMS applied at D31
Method: (§4) Sprague-Dawley rats were subjected to chronic social defeat (CSD) and then, four weeks later, to three weeks of chronic mild stress (SSP rats). The chronic mild stress protocol (CMS) was performed as previously described (see Blugeot et al., 2011). The control rats were control intruders (not subjected to CSD) not exposed to the three weeks of CMS (C rats).
(§5) The CMS protocol is derived from that described by Willner et al. (1992). Briefly, various mild stresses were applied every day, over a period of three weeks. Briefly, from Monday to Friday, every morning, animals were placed in a small cage (10×16×15 cm) for 1 hour. In the afternoon, they were shaken for 10 min (Monday and Thursday), placed in a small cage containing water (2 cm high, Tuesday) or placed in another cage for 4 hours (Wednesday and Friday). Every night, the cage was inclined (45°, Tuesday and Thursday) or contained wet bedding (Wednesday and Friday). On Saturday and Sunday, the rats were subjected to a reversed dark/light cycle for 30 min, every three hours.
Four days after the end of SSP paradigm (D52), FST experiments were performed between 08:00 and 11:30. Experiments were performed as described by Becker et al. (2008, Mol. Psychiatry 13, 1079) and Blugeot et al. (2011). Immobility time was measured with a stopwatch. […] A trained experimenter blind to the treatment observed the animals and measured immobility time. […]

Sprague-Dawley rats [2] = assay: Depression-like profile after sensitization paradigm (CSD then CMS); format: in vivo; settings: TEMPOL administrated before CMS
Method: as §4, §5, §1

CC1(C)CC(O)CC(C)(C)N1[O] [TEMPOL, 4-hydroxy-2,2,6,6-tetramethylpiperidin-1-oxyl]
aconitase activity (aconitase): lack of aconitase activity dysfunction
dendritic trees (total apical dendrite length of CA3 neurons) (CA3 neurons; NV and V animals, D31): fully restored
spine density (CA3 dendritic spines) (CA3 neurons; NV and V animals, D31): fully restored
total length of hippocampal neurons (CA3 neurons; non-vulnerable and control animals vs vehicle-treated): tends to increase
dendritic retraction in CA3 pyramidal cells (CA3 pyramidal cells): prevented
depression-like phenotype (helplessness behaviour, anhedonia, HPA hyperactivity) (Nrf2-null mice): prevented
immobility time in the forced swimming test (Sprague-Dawley rats [1]): prevented the increase in immobility time
depression-like profile generated by the CMS (Sprague-Dawley rats [2]): abolished
